pIC50: −log10 of the molar value. Where a name gives a salt, the structure may show the parent alone.
Assays:
[1] = target: T1, endogenous cellular BACE2 (Rattus norvegicus, UniProt Q6IE75); test: Assay for BACE inhibition by measuring cellular TMEM27 cleavage; format: cell-based; details: INS-TMEM27 (INS1e-derived) cells, shed human TMEM27 in supernatant by ELISA
T1 construct: endogenous cellular BACE2 in the Ins1e rat cell line; endogenous in cells; host or cells: INS-TMEM27 (INS1e-derived rat insulinoma cell line with doxycycline-inducible full-length human TMEM27)
T1 sequence (Q6IE75 63-514): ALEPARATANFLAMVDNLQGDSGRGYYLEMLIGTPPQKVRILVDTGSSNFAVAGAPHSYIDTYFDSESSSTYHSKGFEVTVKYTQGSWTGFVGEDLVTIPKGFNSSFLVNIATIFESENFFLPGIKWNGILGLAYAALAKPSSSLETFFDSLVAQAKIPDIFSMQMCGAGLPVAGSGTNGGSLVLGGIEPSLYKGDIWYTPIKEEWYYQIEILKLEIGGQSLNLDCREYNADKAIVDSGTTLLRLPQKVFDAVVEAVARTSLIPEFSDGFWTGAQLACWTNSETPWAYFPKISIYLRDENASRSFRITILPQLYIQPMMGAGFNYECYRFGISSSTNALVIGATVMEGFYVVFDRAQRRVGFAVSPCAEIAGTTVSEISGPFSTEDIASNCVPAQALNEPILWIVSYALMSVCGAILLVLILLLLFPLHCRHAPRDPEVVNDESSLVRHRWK
How it was run: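 INS1e rat cells with doxycycline-inducible human TMEM27 get inhibitor 2 h before doxycycline (500 ng/ml final), then 46 h further at 37° C. Shed TMEM27 in the supernatant is measured by sandwich ELISA, and the EC50 comes from a curve fit of the ELISA signal.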

Aβ40 = test: Cellular Aβ-lowering assay; format: cell-based; details: HEK293 cells stably expressing human APP695, Aβ40 in supernatant by ELISA after 18-20 hrs; read-out: Cellular assay Abeta40 IC50
How it was run: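 HEK293 cells stably expressing human wild-type APP695 were treated with compound for 18-20 h at 37 °C in 0.8% v/v DMSO. Secreted Aβ40 in the supernatant was measured by sandwich ELISA (Aβ40 C-terminus-specific capture, HRP-4G8 detection, TMB read at 450 nm) and quantified against a pure Aβ peptide standard curve.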

| SMILES | pIC50 [1] | pIC50 (Aβ40) |
| --- | --- | --- |
| C[C@]1(c2cc(NC(=O)c3ccc(OCC(F)(F)C(F)F)cn3)ccc2F)N=C(N)COCC1(F)F [Example 54, (R)-N-(3-(3-amino-6,6-difluoro-5-methyl-2,5,6,7-tetrahydro-1,4-oxazepin-5-yl)-4-fluorophenyl)-5-(2,2,3,3-tetrafluoropropoxy)picolinamide formate] | 6.24 | 7.54 |
| COC(C)C(=O)Nc1ccc(F)c([C@@]2(C)N=C(N)COCC2(F)F)c1 (stereo partly drawn) [Example 55, N-(3-((R)-3-amino-6,6-difluoro-5-methyl-2,5,6,7-tetrahydro-1,4-oxazepin-5-yl)-4-fluorophenyl)-2-methoxypropanamide formate] | 6.72 | 6.85 |
| C[C@]1(c2cc(NC(=O)c3ncc(C#N)cc3Cl)ccc2F)N=C(N)COCC1(F)F [Example 56, (R)-N-(3-(3-amino-6,6-difluoro-5-methyl-2,5,6,7-tetrahydro-1,4-oxazepin-5-yl)-4-fluorophenyl)-3-chloro-5-cyanopicolinamide formate] | 7.81 | 8.82 |
| CCOCc1ccc(C(=O)Nc2ccc(F)c([C@@]3(C)N=C(N)COCC3(F)F)c2)nc1 [Example 57, (R)-N-(3-(3-amino-6,6-difluoro-5-methyl-2,5,6,7-tetrahydro-1,4-oxazepin-5-yl)-4-fluorophenyl)-5-(ethoxymethyl)picolinamide formate] | 6.55 | 7.85 |
| CCOC(=O)c1ccc(C(=O)Nc2ccc(F)c([C@@]3(C)N=C(N)COCC3(F)F)c2)nc1 [Example 58, (R)-ethyl 6-(3-(3-amino-6,6-difluoro-5-methyl-2,5,6,7-tetrahydro-1,4-oxazepin-5-yl)-4-fluorophenylcarbamoyl)nicotinate formate formate] | 6.86 | 6.92 |
| C[C@]1(c2cc(NC(=O)c3ncccc3OCC(F)(F)F)ccc2F)N=C(N)COCC1(F)F [Example 59, (R)-N-(3-(3-amino-6,6-difluoro-5-methyl-2,5,6,7-tetrahydro-1,4-oxazepin-5-yl)-4-fluorophenyl)-3-(2,2,2-trifluoroethoxy)picolinamide] | 6.77 | 6.80 |
| C[C@]1(c2cc(NC(=O)c3ccc(OCC(F)F)cn3)ccc2F)N=C(N)COCC1(F)F [Example 60, (R)-N-(3-(3-amino-6,6-difluoro-5-methyl-2,5,6,7-tetrahydro-1,4-oxazepin-5-yl)-4-fluorophenyl)-5-(2,2-difluoroethoxy)picolinamide formate] | 5.38 | 7.59 |
| C[C@]1(c2cc(NC(=O)c3ccc(Cl)cn3)ccc2F)N=C(N)COC[C@@H]1F [Example 61, N-(3-((5R,6R)-3-amino-6-fluoro-5-methyl-2,5,6,7-tetrahydro-1,4-oxazepin-5-yl)-4-fluorophenyl)-5-chloropicolinamide] | 9.00 | 9.70 |
| C[C@]1(c2cc(NC(=O)c3ccc(F)cn3)ccc2F)N=C(N)COC[C@@H]1F [Example 62, N-(3-((5R,6R)-3-amino-6-fluoro-5-methyl-2,5,6,7-tetrahydro-1,4-oxazepin-5-yl)-4-fluorophenyl)-5-fluoropicolinamide] | 9.00 | 8.74 |
| C[C@]1(c2cc(NC(=O)c3ccc(C#N)cn3)ccc2F)N=C(N)COC[C@@H]1F [Example 63, N-(3-((5R,6R)-3-amino-6-fluoro-5-methyl-2,5,6,7-tetrahydro-1,4-oxazepin-5-yl)-4-fluorophenyl)-5-cyanopicolinamide] | 7.04 | 9.52 |
| C[C@]1(c2cc(NC3CCCC3)ccc2F)N=C(N)COCC1(F)F [Example 64, (R)-5-(5-(cyclopentylamino)-2-fluorophenyl)-6,6-difluoro-5-methyl-2,5,6,7-tetrahydro-1,4-oxazepin-3-amine] | 6.40 | 6.44 |

The remaining lines, values ahead:

| pIC50 [1] | pIC50 (Aβ40) | SMILES |
| --- | --- | --- |
| 7.25 | 7.32 | C[C@]1(c2cc(NC3CCCC3)ccc2F)N=C(N)COC[C@@H]1F [Example 65, (5R,6R)-5-(5-(cyclopentylamino)-2-fluorophenyl)-6-fluoro-5-methyl-2,5,6,7-tetrahydro-1,4-oxazepin-3-amine] |
| 7.26 | 7.82 | C[C@]1(c2cc(NC(=O)c3csc(Cl)n3)ccc2F)N=C(N)COCC1(F)F [Example 66, (R)-N-(3-(3-Amino-6,6-difluoro-5-methyl-2,5,6,7-tetrahydro-1,4-oxazepin-5-yl)-4-fluorophenyl)-2-chlorothiazole-4-carboxamide formate] |
| 4.17 | 6.54 | CC(C)Oc1ccc(C(=O)Nc2ccc(F)c([C@@]3(C)N=C(N)COCC3(F)F)c2)nc1 [Example 67, (R)-N-(3-(3-Amino-6,6-difluoro-5-methyl-2,5,6,7-tetrahydro-1,4-oxazepin-5-yl)-4-fluorophenyl)-5-isopropoxypicolinamide formate] |
| 5.28 | 5.41 | C[C@@]1(c2cc(NC(=O)c3ccc(F)cn3)ccc2F)C[C@@H](c2ccccc2)OCC(N)=N1 [Example 68, 5-Fluoro-pyridine-2-carboxylic acid [3-((5S,7S)-3-amino-5-methyl-7-phenyl-2,5,6,7-tetrahydro-[1,4]oxazepin-5-yl)-4-fluoro-phenyl]-amide] |
| 6.77 | 8.28 | C[C@]1(c2cc(NC(=O)c3ccc(OCF)cn3)ccc2F)N=C(N)COCC1(F)F [Example 70, (R)-N-(3-(3-Amino-6,6-difluoro-5-methyl-2,5,6,7-tetrahydro-1,4-oxazepin-5-yl)-4-fluorophenyl)-5-(fluoromethoxy)picolinamide formate] |
| 4.91 | 5.82 | C[C@]1(c2cc(NC(=O)c3cnc(OCCF)cn3)ccc2F)N=C(N)COCC1(F)F [Example 71, (R)-N-(3-(3-Amino-6,6-difluoro-5-methyl-2,5,6,7-tetrahydro-1,4-oxazepin-5-yl)-4-fluorophenyl)-5-(2-fluoroethoxy)pyrazine-2-carboxamide formate] |
| 5.61 | 6.23 | C[C@]1(c2cc(NC(=O)c3cc(Cl)c(Cl)s3)ccc2F)N=C(N)COCC1(F)F [Example 72, (R)-N-(3-(3-Amino-6,6-difluoro-5-methyl-2,5,6,7-tetrahydro-1,4-oxazepin-5-yl)-4-fluorophenyl)-4,5-dichlorothiophene-2-carboxamide formate,] |
| 5.19 | 6.52 | C[C@]1(c2cc(NC(=O)c3nsc(Cl)n3)ccc2F)N=C(N)COCC1(F)F [Example 73, (R)-N-(3-(3-Amino-6,6-difluoro-5-methyl-2,5,6,7-tetrahydro-1,4-oxazepin-5-yl)-4-fluorophenyl)-5-chloro-1,2,4-thiadiazole-3-carboxamide formate] |
| 5.47 | 8.00 | C[C@]1(c2cc(NC(=O)c3cnc(OCC(F)F)cn3)ccc2F)N=C(N)COCC1(F)F [Example 74, (R)-N-(3-(3-Amino-6,6-difluoro-5-methyl-2,5,6,7-tetrahydro-1,4-oxazepin-5-yl)-4-fluorophenyl)-5-(2,2-difluoroethoxy)pyrazine-2-carboxamide formate] |
| 7.05 | 6.39 | CC[C@]1(c2cc(NC(=O)c3ccccn3)ccc2F)N=C(N)COCC1(F)F [Example 75, (R)-N-(3-(3-amino-5-ethyl-6,6-difluoro-2,5,6,7-tetrahydro-1,4-oxazepin-5-yl)-4-fluorophenyl)picolinamide] |
| 6.25 | 8.40 | CC[C@]1(c2cc(NC(=O)c3ncccc3Cl)ccc2F)N=C(N)COCC1(F)F [Example 76, (R)-N-(3-(3-Amino-5-ethyl-6,6-difluoro-2,5,6,7-tetrahydro-1,4-oxazepin-5-yl)-4-fluorophenyl)-3-chloropicolinamide] |
| 6.75 | 6.12 | CC[C@]1(c2cc(NC(=O)c3ncccc3C(F)(F)F)ccc2F)N=C(N)COCC1(F)F [Example 77, (R)-N-(3-(3-Amino-5-ethyl-6,6-difluoro-2,5,6,7-tetrahydro-1,4-oxazepin-5-yl)-4-fluorophenyl)-3-(trifluoromethyl)picolinamide] |
| 7.13 | 7.22 | CC[C@]1(c2cc(NC(=O)c3ccc(F)cn3)ccc2F)N=C(N)COCC1(F)F [Example 78, (R)-N-(3-(3-Amino-5-ethyl-6,6-difluoro-2,5,6,7-tetrahydro-1,4-oxazepin-5-yl)-4-fluorophenyl)-5-fluoropicolinamide] |
| 7.17 | 7.15 | CC[C@]1(c2cc(NC(=O)c3ccc(C#N)cn3)ccc2F)N=C(N)COCC1(F)F [Example 79, (R)-N-(3-(3-Amino-5-ethyl-6,6-difluoro-2,5,6,7-tetrahydro-1,4-oxazepin-5-yl)-4-fluorophenyl)-5-cyanopicolinamide] |

From patent US8673894B2 (Hoffmann-La Roche Inc., priority 2010, dated 2014)
